Structures are written as SMILES. In brackets after ≈: the same amount, converted by molar mass.

The values below come from ChEMBL document CHEMBL4190372, “Discovery of a Novel Oral Glucocorticoid Receptor Modulator (AZD9567) with Improved Side Effect Profile” (J Med Chem, 2018).

The target of series [1] is T1, Glucocorticoid receptor (Homo sapiens, UniProt P04150).
T1 sequence (P04150 whole entry): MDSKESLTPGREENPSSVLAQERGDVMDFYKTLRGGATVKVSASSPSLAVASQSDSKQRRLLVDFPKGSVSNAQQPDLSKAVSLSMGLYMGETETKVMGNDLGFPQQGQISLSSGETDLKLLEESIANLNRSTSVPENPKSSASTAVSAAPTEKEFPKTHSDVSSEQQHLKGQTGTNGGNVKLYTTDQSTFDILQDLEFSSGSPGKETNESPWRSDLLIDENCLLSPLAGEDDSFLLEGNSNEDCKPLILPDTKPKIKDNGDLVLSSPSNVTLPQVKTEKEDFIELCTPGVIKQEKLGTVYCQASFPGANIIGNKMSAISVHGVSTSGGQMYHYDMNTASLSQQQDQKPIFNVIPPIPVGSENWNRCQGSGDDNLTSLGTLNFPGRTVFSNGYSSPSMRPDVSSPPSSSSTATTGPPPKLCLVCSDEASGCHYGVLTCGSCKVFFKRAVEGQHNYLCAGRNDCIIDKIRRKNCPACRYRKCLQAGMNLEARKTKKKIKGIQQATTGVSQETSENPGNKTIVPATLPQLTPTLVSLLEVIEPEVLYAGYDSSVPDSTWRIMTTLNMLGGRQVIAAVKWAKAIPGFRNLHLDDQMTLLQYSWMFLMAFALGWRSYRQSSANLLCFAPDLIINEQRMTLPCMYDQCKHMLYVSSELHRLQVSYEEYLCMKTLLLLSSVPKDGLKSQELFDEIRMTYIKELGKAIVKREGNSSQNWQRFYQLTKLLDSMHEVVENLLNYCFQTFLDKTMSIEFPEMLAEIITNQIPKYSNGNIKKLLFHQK
Kind of series: Transactivation of GR in cryopreserved human primary hepatocytes assessed as upregulation of TAT mRNA expression level up to 1 uM after 18 hrs by RT-qPCR analysis.

A short description of series [2]: Cmax in Han-Wistar rat plasma at 0.8 mg/kg, po. It is filed as ADME, organism-based. More on the design: dose 0.8 mg/kg, route oral.
Series [3] deals with Rattus norvegicus. Kind of series: Antiinflammatory activity in streptococcal cell wall reactivation Lewis rat model assessed as reduction of joint swelling at 0.3 mg/kg administered once daily for 8 days by oral gavage starting 1 day prior to streptococcal cell wall challenge measured during 6 days post challenge relative to control. It is filed as functional. More on the design: scale not given: the % may be the effect or the level left.

Series [4] is described as follows: Aqueous solubility of the compound. It is filed as physicochemical. Particulars: aqueous; read-out: solubility; call rule not given here.
The nature of series [5]: Volume of distribution at steady state in Han-Wistar rat at 0.8 mg/kg, iv. It is filed as ADME, organism-based. Particulars: in vivo, read-out: Vdss.
The next series deals with T2, Estrogen receptor (Homo sapiens, UniProt P03372).
T2 sequence (P03372 whole entry): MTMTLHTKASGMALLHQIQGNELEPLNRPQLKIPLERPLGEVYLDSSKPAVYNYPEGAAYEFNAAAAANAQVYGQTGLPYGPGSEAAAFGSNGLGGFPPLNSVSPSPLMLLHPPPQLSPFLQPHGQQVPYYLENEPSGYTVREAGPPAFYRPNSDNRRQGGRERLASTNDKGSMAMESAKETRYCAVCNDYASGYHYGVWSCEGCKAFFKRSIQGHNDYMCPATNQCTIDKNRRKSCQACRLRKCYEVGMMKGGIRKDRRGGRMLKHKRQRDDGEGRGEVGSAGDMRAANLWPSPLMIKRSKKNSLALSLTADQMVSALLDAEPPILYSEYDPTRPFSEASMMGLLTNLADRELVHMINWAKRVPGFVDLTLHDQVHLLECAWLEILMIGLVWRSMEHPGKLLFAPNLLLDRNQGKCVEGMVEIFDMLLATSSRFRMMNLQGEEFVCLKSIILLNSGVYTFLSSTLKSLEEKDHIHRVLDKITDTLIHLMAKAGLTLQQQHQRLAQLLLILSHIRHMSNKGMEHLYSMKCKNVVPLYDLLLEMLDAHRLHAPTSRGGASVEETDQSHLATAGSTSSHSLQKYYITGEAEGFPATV
Kind of series: Binding affinity to human ERalpha expressed in Sf9 cells by fluoligand binding-based fluorescence polarization method.

The target of series [6] is T1, Glucocorticoid receptor.
Description: Transrepression activity at glucocorticoid receptor (unknown origin) expressed in human ChaGoK1 cells assessed as inhibition of PMA-stimulated gene expression incubated for 24 hrs by beta-galactosidase reporter gene assay
Series [7] is described as follows: Oral bioavailability in Beagle dog at 0.5 mg/kg. It is filed as ADME, organism-based, Canis lupus familiaris. As to conditions: in vivo.
In series [8] the target is T1, Glucocorticoid receptor. This is another data set of the same source.
Description: Transactivation activity at glucocorticoid receptor (unknown origin) expressed in human ChaGoK1 cells incubated for 24 hrs by beta-galactosidase reporter gene assay
Series [9] can be described thus: Terminal half life in Han-Wistar rat at 0.8 mg/kg, iv. It is filed as ADME, organism-based. Particulars: in vivo, read-out: beta t1/2 (converted).
In series [10] the test system is Rattus norvegicus. As to the kind of experiment: Dose normalized Cmax in Han-Wistar rat at 2.1 mg/kg, po. In kind it is ADME, organism-based. Particulars: in vivo.
A short description of series [11]: Terminal half life in Han-Wistar rat at 2.1 mg/kg, po. In kind it is ADME, organism-based. Particulars: in vivo, read-out: beta t1/2 (converted).
Series [12] addresses T1, Glucocorticoid receptor. As to the kind of experiment: Displacement of fluormone RED from human full length glucocorticoid receptor after 4 hrs by fluorescence polarization assay.
The target of a further series is T3, Androgen receptor (Homo sapiens, UniProt P10275).
T3 sequence (P10275 whole entry): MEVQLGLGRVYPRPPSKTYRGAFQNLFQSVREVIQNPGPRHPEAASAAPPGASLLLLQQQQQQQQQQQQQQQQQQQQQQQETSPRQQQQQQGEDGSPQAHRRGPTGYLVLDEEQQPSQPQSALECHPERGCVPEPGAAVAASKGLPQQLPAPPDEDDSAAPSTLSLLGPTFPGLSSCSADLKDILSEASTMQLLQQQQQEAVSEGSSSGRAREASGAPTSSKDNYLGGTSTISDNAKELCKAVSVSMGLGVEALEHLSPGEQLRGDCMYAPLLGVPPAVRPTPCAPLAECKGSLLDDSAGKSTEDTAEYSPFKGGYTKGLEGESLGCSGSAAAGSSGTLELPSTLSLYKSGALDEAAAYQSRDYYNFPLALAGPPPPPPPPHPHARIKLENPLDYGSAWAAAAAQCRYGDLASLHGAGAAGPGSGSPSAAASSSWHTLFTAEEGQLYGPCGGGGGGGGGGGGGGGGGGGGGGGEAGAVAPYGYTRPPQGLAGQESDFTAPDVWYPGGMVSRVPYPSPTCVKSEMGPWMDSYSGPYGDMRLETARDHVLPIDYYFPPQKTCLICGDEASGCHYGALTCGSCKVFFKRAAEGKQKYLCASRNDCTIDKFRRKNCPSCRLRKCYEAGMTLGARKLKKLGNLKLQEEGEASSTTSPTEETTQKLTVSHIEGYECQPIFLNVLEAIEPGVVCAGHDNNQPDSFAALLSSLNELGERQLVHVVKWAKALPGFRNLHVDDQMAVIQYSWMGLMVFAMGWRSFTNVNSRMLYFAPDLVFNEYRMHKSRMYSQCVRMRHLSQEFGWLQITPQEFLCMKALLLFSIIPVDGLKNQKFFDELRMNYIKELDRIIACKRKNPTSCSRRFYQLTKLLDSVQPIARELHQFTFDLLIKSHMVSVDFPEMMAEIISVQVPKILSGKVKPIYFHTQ
As to the kind of experiment: biochemical.

Series [13] can be described thus: Clearance in Han-Wistar rat at 0.8 mg/kg, iv. It is filed as ADME, organism-based. As to conditions: in vivo.

Description for Androgen receptor: Displacement of [3H]methyltrienolone from androgen receptor in human LNCaP cells after 1440 mins by scintillation counting method

With `CC(C)[C@H](NC(=O)C(C)(F)F)[C@H](Oc1ccc2c(cnn2-c2ccc(=O)n(C)c2)c1)c1ccccc1` [MIZACORAT], the Activity result on Glucocorticoid receptor [1] was “Not Active”; with Rattus norvegicus [3] it was 66%. Besides, in series [2], the Cmax turned out to be 2000 nM. In addition, the solubility in [4] turned out to be 55 µM (≈ 27.2 µg/mL). The Vd in series [5] worked out at 0.66 L/kg. For the same compound, the half-inhibitory concentration (IC50) is above 100000 nM at Estrogen receptor, 7 nM against Glucocorticoid receptor [6], 3.8 nM on Glucocorticoid receptor [12] and above 100000 nM against Androgen receptor. Besides, the bioavailability in series [7] turned out to be 48%. The same compound yielded a concentration giving a half-maximal response (EC50) at Glucocorticoid receptor [8] of 11 nM. The half-life in [9] was 2.3 h; in [11], 1.9 h. In addition, the Cmax/dose with Rattus norvegicus [10] turned out to be 950 nM. The clearance in series [13] was 4.5 mL/min/kg.
